In publication PMC8509398, “Proteolytic Cleavage of Bioactive Peptides and Protease-Activated Receptors in Acute and Post-Colitis” (International Journal of Molecular Sciences, 2021):
Residues, ends and D or L forms follow the SMILES beside them.

Key:
[1] = target: trypsin-1 (Homo sapiens, UniProt P07477); experiment: Cleavage of peptides by purified trypsin-1, MALDI-TOF/TOF; conditions: 25 nM protease, 10 µM peptide; for Incubation time at which the first cleavage or decrease of the full-length peptide was observed, trypsin-1: 37 °C, time points 2, 5, 10, 30 min
Excerpt: (§1) Trypsin-like proteases included in the experiments are trypsin-1, -2 and -3, tryptase (Enzo LifeSciences), thrombin (Sigma-Aldrich) and cathepsin G (Sigma-Aldrich). Trypsin-1, -2 and -3 were produced as described by Koistinen et al. and Wu et al.. Two elastase-like enzymes, neutrophil elastase (Enzo LifeSciences, Farmingdale, NY, USA) and pancreatic elastase I (Sigma-Aldrich) were included as well. All enzymes were from human origin except for pancreatic elastase from porcine pancreas.
(§2) Reaction mixtures with purified enzymes were compiled in an identical way. Each mixture contained an equimolar concentration of protease (25 nM based on) and 10 µM peptide of interest and was incubated for 2, 5, 10 and 30 min at 37 °C. Substance P was added as the standard peptide except for the reaction mixtures with substance P or bradykinin as the peptide of interest, where angiotensin II (Bachem) was added.
(§3) The TFA mixtures were thawed on ice and desalted using C18 zip-tips (Merck Millipore®, Burlington, MA, USA) with a capacity of 5 µg protein. Retained peptide fragments were eluted directly on the MALDI target plate. Next, 0.5 µL of a 2.5 mg/mL α-cyano-4-hydroxycinnamic acid (Sigma-Aldrich) matrix solution (in 70% acetonitrile, 0.1% TFA) was spotted on top of the sample. A 6-Peptide mixture Kit (AB Sciex, Framingham, MA, USA) containing bradykinin (2–9), angiotensin I, glu1-fibrinopeptide, ACTH (1–17), ACTH (18–39) and ACTH (7–38) was diluted with matrix and spotted on the plate as well.
(§4) MS and MS/MS data for peptide fragment identification were obtained with a MALDI-TOF/TOF instrument (4800 MALDI TOF/TOF™, Applied Biosystems, Waltham, MA, USA) and instrument parameters were set using 4000 Series Explorer™ software. MS spectra were recorded in positive reflector mode in a mass range from 500 to 4000 Da and laser intensity of 4500–4800 Hz. The spectra were calibrated using the calibration mixture mentioned above to a mass tolerance of 0.1 Da. MS/MS spectra were recorded with high-energy collision-induced dissociation and the laser intensity was increased by 10%. Precursor mass m/z 1570.65 (Glu1-Fibrinopeptide from the calibration mixture) was used to calibrate the MS/MS spectra to a mass tolerance of 0.1 Da.
(§5) MS and MS/MS spectra were processed using DataExplorer™ software and the obtained output files were uploaded in the MS-PEP data analyzer (https://bioit.shinyapps.io/PARs/ accessed 10/08/2020) for peptide fragment identification. Identified fragments were confirmed using the MS/MS spectra and mMass 5.5.0 by Martin Strohalm. The relative intensities of the fragments were calculated as the ratio of the intensity of the peak of interest to the intensity of the peak of the standard peptide.

[2] = target: trypsin-2 (Homo sapiens, UniProt P07478); experiment: Cleavage of peptides by purified trypsin-2, MALDI-TOF/TOF; conditions: 25 nM protease, 10 µM peptide; for Incubation time at which the first cleavage or decrease of the full-length peptide was observed, trypsin-2: 37 °C, time points 2, 5, 10, 30 min
Chain of trypsin-2 (P07478 24-247): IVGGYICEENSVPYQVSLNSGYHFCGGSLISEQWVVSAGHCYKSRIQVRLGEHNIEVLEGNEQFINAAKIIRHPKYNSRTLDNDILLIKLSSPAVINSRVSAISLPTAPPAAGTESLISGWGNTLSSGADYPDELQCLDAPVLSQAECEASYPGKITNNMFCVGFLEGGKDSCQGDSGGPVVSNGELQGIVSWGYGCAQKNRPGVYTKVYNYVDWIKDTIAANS
Excerpt: as §1, §2, §3, §4, §5

[3] = target: T1, trypsin-3 (Homo sapiens, UniProt P35030); experiment: Cleavage of peptides by purified trypsin-3, MALDI-TOF/TOF; conditions: 25 nM protease, 10 µM peptide; for Incubation time at which the first cleavage or decrease of the full-length peptide was observed, trypsin-3: 37 °C, time points 2, 5, 10, 30 min
T1 sequence (P35030 1-304): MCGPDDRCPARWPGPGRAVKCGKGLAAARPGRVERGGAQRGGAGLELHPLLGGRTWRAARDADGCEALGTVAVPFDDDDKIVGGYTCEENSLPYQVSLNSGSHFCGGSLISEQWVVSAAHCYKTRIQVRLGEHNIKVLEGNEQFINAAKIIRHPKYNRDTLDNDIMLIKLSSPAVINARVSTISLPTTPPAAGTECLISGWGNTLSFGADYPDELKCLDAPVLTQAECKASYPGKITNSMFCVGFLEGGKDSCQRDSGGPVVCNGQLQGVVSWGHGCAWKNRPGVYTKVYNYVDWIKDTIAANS
Excerpt: as §1, §2, §3, §4, §5

[4] = target: tryptase (Homo sapiens, UniProt Q15661); experiment: Cleavage of peptides by purified tryptase, MALDI-TOF/TOF; conditions: 25 nM protease, 10 µM peptide; for Incubation time at which the first cleavage or decrease of the full-length peptide was observed, tryptase: 37 °C, time points 2, 5, 10, 30 min
Chain of tryptase (Q15661 31-275): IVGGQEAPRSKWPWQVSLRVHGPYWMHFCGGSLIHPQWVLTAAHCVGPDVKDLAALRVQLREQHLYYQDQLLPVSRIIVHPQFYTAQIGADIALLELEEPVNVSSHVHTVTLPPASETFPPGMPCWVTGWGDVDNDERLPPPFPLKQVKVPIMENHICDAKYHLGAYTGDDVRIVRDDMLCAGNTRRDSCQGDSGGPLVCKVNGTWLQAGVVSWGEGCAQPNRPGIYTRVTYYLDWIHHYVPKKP
Excerpt: as §1, §2, §3, §4, §5

[5] = target: thrombin (Homo sapiens, UniProt P00734); experiment: Cleavage of peptides by purified thrombin, MALDI-TOF/TOF; conditions: 25 nM protease, 10 µM peptide; for Incubation time at which the first cleavage or decrease of the full-length peptide was observed, thrombin: 37 °C, time points 2, 5, 10, 30 min
Excerpt: as §1, §2, §3, §4, §5

[6] = target: T2, cathepsin G (Homo sapiens, UniProt P08311); experiment: Cleavage of peptides by purified cathepsin G, MALDI-TOF/TOF; conditions: 25 nM protease, 10 µM peptide; for Incubation time at which the first cleavage or decrease of the full-length peptide was observed, cathepsin G: 37 °C, time points 2, 5, 10, 30 min
T2 sequence (P08311 21-255): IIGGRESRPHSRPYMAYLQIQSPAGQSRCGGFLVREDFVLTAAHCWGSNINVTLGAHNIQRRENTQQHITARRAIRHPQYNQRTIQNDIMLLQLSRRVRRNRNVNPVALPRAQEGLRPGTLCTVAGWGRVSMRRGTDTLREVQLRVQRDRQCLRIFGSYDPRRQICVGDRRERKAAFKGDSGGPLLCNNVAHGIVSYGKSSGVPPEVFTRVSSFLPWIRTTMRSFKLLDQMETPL
Excerpt: as §1
(§6) Reaction mixtures with purified enzymes were compiled in an identical way. […] Substance P was added as the standard peptide except for the reaction mixtures with substance P or bradykinin as the peptide of interest, where angiotensin II (Bachem) was added.
as §3
(§7) MS and MS/MS data for peptide fragment identification were obtained with a MALDI-TOF/TOF instrument (4800 MALDI TOF/TOF™, Applied Biosystems, Waltham, MA, USA) and instrument parameters were set using 4000 Series Explorer™ software. MS spectra were recorded in positive reflector mode in a mass range from 500 to 4000 Da and laser intensity of 4500–4800 Hz. The spectra were calibrated using the calibration mixture mentioned above to a mass tolerance of 0.1 Da. MS/MS spectra were recorded with high-energy collision-induced dissociation and the laser intensity was increased by 10%.
(§8) Identified fragments were confirmed using the MS/MS spectra and mMass 5.5.0 by Martin Strohalm. The relative intensities of the fragments were calculated as the ratio of the intensity of the peak of interest to the intensity of the peak of the standard peptide.

[7] = target: T3, neutrophil elastase (Homo sapiens, UniProt P08246); experiment: Cleavage of peptides by purified neutrophil elastase, MALDI-TOF/TOF; conditions: 25 nM protease, 10 µM peptide; for Incubation time at which the first cleavage or decrease of the full-length peptide was observed, neutrophil elastase: 37 °C, time points 2, 5, 10, 30 min
T3 sequence (P08246 30-267): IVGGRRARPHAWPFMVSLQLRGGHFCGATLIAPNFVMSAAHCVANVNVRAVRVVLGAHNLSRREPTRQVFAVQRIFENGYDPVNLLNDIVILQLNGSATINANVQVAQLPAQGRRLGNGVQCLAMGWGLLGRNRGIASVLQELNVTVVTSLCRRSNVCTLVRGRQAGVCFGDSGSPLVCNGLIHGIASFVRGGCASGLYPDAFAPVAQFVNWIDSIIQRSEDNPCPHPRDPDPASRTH
Excerpt: as §1, §6, §3, §7, §8

[8] = target: pancreatic elastase I (Sus scrofa, UniProt P00772); experiment: Cleavage of peptides by purified pancreatic elastase, MALDI-TOF/TOF; conditions: 25 nM protease, 10 µM peptide; for Incubation time at which the first cleavage or decrease of the full-length peptide was observed, pancreatic elastase: 37 °C, time points 2, 5, 10, 30 min
Chain of pancreatic elastase I (P00772 27-266): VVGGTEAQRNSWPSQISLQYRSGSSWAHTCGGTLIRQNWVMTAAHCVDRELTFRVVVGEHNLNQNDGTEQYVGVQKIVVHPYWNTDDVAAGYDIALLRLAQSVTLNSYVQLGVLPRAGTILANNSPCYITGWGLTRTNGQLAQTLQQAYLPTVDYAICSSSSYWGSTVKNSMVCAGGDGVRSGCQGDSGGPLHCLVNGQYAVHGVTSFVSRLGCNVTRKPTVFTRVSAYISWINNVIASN
Excerpt: as §1, §6, §3, §7, §8

[9] = 37 °C, 2, 5, 10 and 30 min, stopped with 2% TFA
[10] = PAR-based peptides, 37 °C, 2, 5, 10 and 30 min

CC[C@H](C)[C@H](NC(=O)[C@H](C)NC(=O)[C@H](CC(N)=O)NC(=O)[C@H](CCCCN)NC(=O)[C@H](Cc1ccccc1)NC(=O)[C@H](CC(C)C)NC(=O)[C@@H](NC(=O)[C@@H](NC(=O)[C@H](CC(C)C)NC(=O)[C@@H]1CCCN1C(=O)[C@@H](NC(=O)[C@H](CCC(N)=O)NC(=O)[C@H](CO)NC(=O)[C@H](CCCCN)NC(=O)[C@H](CCC(=O)O)NC(=O)[C@H](CO)NC(=O)[C@@H](NC(=O)[C@H](CCSC)NC(=O)[C@H](Cc1ccccc1)NC(=O)CNC(=O)CNC(=O)[C@@H](N)Cc1ccc(O)cc1)[C@@H](C)O)[C@@H](C)O)C(C)C)[C@@H](C)O)C(=O)N[C@H](C(=O)N[C@@H](CCCCN)C(=O)N[C@@H](CC(N)=O)C(=O)N[C@@H](C)C(=O)N[C@@H](Cc1ccc(O)cc1)C(=O)N[C@@H](CCCCN)C(=O)N[C@@H](CCCCN)C(=O)NCC(=O)N[C@@H](CCC(=O)O)C(=O)O)[C@@H](C)CC [β-endorphin]
Efficiency of the first cleavage in the peptide, Trypsin-1 [1, 9]: +++ (ultrafast processing within 2 min) | Incubation time at which the first cleavage or decrease of the full-length peptide was observed, trypsin-1 [1]: 2 min | Efficiency of the first cleavage in the peptide, Trypsin-2 [2, 9]: +++ (ultrafast processing within 2 min) | Incubation time at which the first cleavage or decrease of the full-length peptide was observed, trypsin-2 [2]: 2 min | Efficiency of the first cleavage in the peptide, Trypsin-3 [3, 9]: − | Incubation time at which the first cleavage or decrease of the full-length peptide was observed, trypsin-3 [3]: > 30 min | Efficiency of the first cleavage in the peptide, Tryptase [4, 9]: +++ (ultrafast processing within 2 min) | Incubation time at which the first cleavage or decrease of the full-length peptide was observed, tryptase [4]: 2 min | Efficiency of the first cleavage in the peptide, Thrombin [5, 9]: − | Incubation time at which the first cleavage or decrease of the full-length peptide was observed, thrombin [5]: > 30 min | Efficiency of the first cleavage in the peptide, Cathepsin G [6, 9]: +++ (ultrafast processing within 2 min) | Incubation time at which the first cleavage or decrease of the full-length peptide was observed, cathepsin G [6]: 2 min | Efficiency of the first cleavage in the peptide, Neutrophil Elastase [7, 9]: +++ (ultrafast processing within 2 min) | Incubation time at which the first cleavage or decrease of the full-length peptide was observed, neutrophil elastase [7]: 2 min | Efficiency of the first cleavage in the peptide, Pancreatic Elastase [8, 9]: +++ (ultrafast processing within 2 min) | Incubation time at which the first cleavage or decrease of the full-length peptide was observed, pancreatic elastase [8]: 2 min

CC[C@H](C)[C@H](NC(=O)[C@H](CO)NC(=O)[C@@H]1CCCN1C(=O)[C@@H](NC(=O)[C@H](CO)NC(=O)[C@H](CC(=O)O)NC(=O)[C@H](CC(=O)O)NC(=O)CNC(=O)CNC(=O)CNC(=O)[C@@H](NC(=O)[C@H](CO)NC(=O)CNC(=O)[C@H](CO)NC(=O)[C@H](CCC(=O)O)NC(=O)[C@H](CC(=O)O)NC(=O)[C@H](Cc1ccc(O)cc1)NC(=O)[C@@H](NC(=O)[C@H](CO)NC(=O)[C@@H]1CCCN1C(=O)[C@@H](NC(=O)[C@H](CCC(N)=O)NC(=O)[C@@H](NC(=O)CNC(=O)CN)[C@@H](C)O)[C@@H](C)O)C(C)C)[C@@H](C)O)[C@@H](C)O)C(=O)N[C@@H](CC(C)C)C(=O)N1CCC[C@H]1C(=O)N[C@@H](C)C(=O)N1CCC[C@H]1C(=O)N[C@@H](CCCNC(=N)N)C(=O)NCC(=O)N[C@@H](Cc1ccc(O)cc1)C(=O)N1CCC[C@H]1C(=O)NCC(=O)N[C@@H](CCC(N)=O)C(=O)N[C@H](C(=O)N[C@@H](CS)C(=O)N[C@@H](C)C(=O)N[C@@H](CC(N)=O)C(=O)N[C@@H](CC(=O)O)C(N)=O)C(C)C [PAR4-based] (H-GGTQTPSVYDESGSTGGGDDSTPSILPAPRGYPGQVCAND-NH2)
Incubation time at which the first cleavage or decrease of the full-length peptide was observed, trypsin-1 [1]: 2 min | TL disarming (D), Trypsin-1 [1, 10]: − | TL unmasking (U), Trypsin-1 [1, 10]: +++ (ultrafast processing within 2 min) | Incubation time at which the first cleavage or decrease of the full-length peptide was observed, trypsin-2 [2]: 2 min | TL disarming (D), Trypsin-2 [2, 10]: − | TL unmasking (U), Trypsin-2 [2, 10]: +++ (ultrafast processing within 2 min) | Incubation time at which the first cleavage or decrease of the full-length peptide was observed, trypsin-3 [3]: 2 min | TL disarming (D), Trypsin-3 [3, 10]: − | TL unmasking (U), Trypsin-3 [3, 10]: +++ (ultrafast processing within 2 min) | Incubation time at which the first cleavage or decrease of the full-length peptide was observed, tryptase [4]: > 30 min | TL disarming (D), Tryptase [4, 10]: − | TL unmasking (U), Tryptase [4, 10]: − | Incubation time at which the first cleavage or decrease of the full-length peptide was observed, thrombin [5]: 2 min | TL disarming (D), Thrombin [5, 10]: − | TL unmasking (U), Thrombin [5, 10]: +++ (ultrafast processing within 2 min) | Incubation time at which the first cleavage or decrease of the full-length peptide was observed, cathepsin G [6]: > 30 min | TL disarming (D), Cathepsin G [6, 10]: − | TL unmasking (U), Cathepsin G [6, 10]: − | Incubation time at which the first cleavage or decrease of the full-length peptide was observed, neutrophil elastase [7]: > 30 min | TL disarming (D), Neutrophil Elastase [7, 10]: − | TL unmasking (U), Neutrophil Elastase [7, 10]: − | Incubation time at which the first cleavage or decrease of the full-length peptide was observed, pancreatic elastase [8]: > 30 min | TL disarming (D), Pancreatic Elastase [8, 10]: − | TL unmasking (U), Pancreatic Elastase [8, 10]: −
